Measurements: publication PMC6331789, “Phytochemicals from Ruta graveolens Activate TAS2R Bitter Taste Receptors and TRP Channels Involved in Gustation and Nociception” (Molecules, 2015)

System: twenty TAS2R bitter taste receptors
Assay: In vitro screening on the platform of twenty cloned TAS2R bitter taste receptors
Format: cell-based, human
Conditions: at the tested concentration
From the text: Pure phytochemicals were submitted to in vitro assays with a platform of twenty cloned receptors of the bitter taste TAS2R family and four receptors of the TRP family related to the perception of taste and somatosensory sensations. All experiments have been repeated three times, each time with four replicates. […] For simplicity, only those bitter taste receptors having reproducible positive assay, namely TASR10, 14 and 49, are reported (Table 1).
For the biological tests, several compounds were purchased as references from different suppliers (Sigma Aldrich, ChromaDex, Irvine, CA, USA, and Tocris Bioscience, Bristol, UK) and dissolved in assay buffer (130 mM NaCl, 5 mM KCl, 1 mM MgCl2, 2 mM CaCl2, 5 mM NaHCO3 and 20 mM HEPES, pH 7.4) or in a mixture of assay buffer and DMSO, never exceeding a final DMSO concentration of 0.5% (v/v) to avoid toxic effects and possible artefacts on transfected cells.
All human TAS2R and G15Gi1 cDNAs were produced as reported in Bassoli et al. cDNAs for human TRPA1-M5-M8-V1-V4 were cloned into a pcDNA6 expression vector (Invitrogen-Thermo Fisher, Waltham, MA, USA).
All experiments were performed using HEK293T cells (ATCC).
For the bitter platform experiments, cells were cultured, transfected and analyzed as previously described.
For the bitter platform experiments, data analyses were performed as previously described.
For the calculation of concentration-response curves, responses were calculated as the difference between maximal and minimal relative fluorescence unit (RFU) values in a selected time window (11–60 s) and were normalized to the basal well fluorescence (Time Point 1, before compound injection) in order to compensate for differences in cell density (∆F/F0). All of the experiments have been repeated three times, each time with four replicates. All of the results are averages of at least four replicates. Raw data are available in Supplementary Material, Figures S3–S6.

Which “Response on the twenty TAS2R receptors (in words)” value (from here on “Response”) does the source give for `CCCCCCCCCC(C)=O` [Compound 9, 2-undecanone] here?
Its value is “inactive”.

With `CCCCCCCC(C)=O` [Compound 10, 2-nonanone] as the compound, how does the “Response” value read?
Its value is “inactive”.

How did the “Response” value turn out when `C[C@@H]1O[C@@H](OC[C@H]2O[C@@H](Oc3c(-c4ccc(O)c(O)c4)oc4cc(O)cc(O)c4c3=O)[C@H](O)[C@@H](O)[C@@H]2O)[C@H](O)[C@H](O)[C@H]1O` [Compound 1, rutin] was run?
The value was “inactive”.

With `COc1cc2nc3occc3c(OC)c2cc1OC` [Compound 7, kokusaginin] as the compound, how does the “Response” value read?
The value was “did not respond”.
